Experimental data reported in patent publication US20160002247A1, “8-SUBSTITUTED IMIDAZOPYRIMIDINONE DERIVATIVE HAVING AUTOTAXIN INHIBITORY ACTIVITY” (THE UNIVERSITY OF TOKYO, priority 2013, published 2016).

The molecules below were run against T1, Human autotaxin enzyme (Homo sapiens, UniProt Q13822) (assay: Evaluation of autotaxin inhibitor, Method C (Test Example 3): 18:0 Lyso PC, choline assay, Resorufin fluorescence). Details: Assay Method C (Test Example 3), human autotaxin, 18:0 Lyso PC substrate; read-out: Inhibitory Activity (autotaxin enzyme inhibitory activity, IC50 class).
T1 construct: purchased R&D System
Type: biochemical
In short: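 Human autotaxin in Tris-HCl pH 7.5, 150 mM NaCl, 5 mM MgCl2, 0.05% Triton X-100 reacted 2 h at room temperature with 18:0 Lyso PC (200 μM solution added). Released choline detected via choline oxidase/peroxidase/Amplex-type reagent, resorufin fluorescence (ex 531/em 598 nm); inhibition vs no-compound and no-enzyme controls, concentration-response curve.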

SMILES | IC50
CCCCCn1c(OC2CCN(CC(=O)O)CC2)cc(=O)n2cc(-c3ccc(Cl)cc3)nc12 [Compound 540] | 10 to 100 nM
CCCCCn1c(OC2CN(C(=O)CN3CCOCC3)C2)cc(=O)n2cc(-c3ccc(Cl)cc3)nc12 [Compound 543] | 10 to 100 nM
CCCCCn1c(N2CCC[C@@H]2CC(=O)NCC(=O)O)cc(=O)n2cc(-c3ccc(Cl)cc3)nc12 [Compound 634] | 100 to 1000 nM
CCCCCn1c(N2CCC[C@H]2C(=O)NC2(CC(=O)OC)CCOCC2)cc(=O)n2cc(-c3ccc(Cl)cc3)nc12 [Compound 347] | 10 to 100 nM
CCCCCn1c(N2CCC[C@H]2C(=O)N2CCC[C@@H](C(=O)OCC)C2)cc(=O)n2cc(-c3ccc(Cl)cc3)nc12 [Compound 688] | 10 to 100 nM
CCCCCn1c(-c2cccc(C(=O)NCc3ccccc3)c2)cc(=O)n2cc(-c3ccc(Cl)cc3)nc12 [Compound 428] | 100 to 1000 nM
CCCCCn1c(N2CCCC(CC(=O)OCC)C2)cc(=O)n2cc(-c3ccc(Cl)cc3)nc12 (stereo not shown) [Compound 315] | 100 to 1000 nM
CCCCCn1c(-c2ccc(S(=O)(=O)NC)cc2)cc(=O)n2cc(-c3ccc(Cl)cc3)nc12 [Compound 431] | 10 to 100 nM
N#CCCCCn1c(NCc2ccc(C(=O)O)cc2)cc(=O)n2cc(-c3ccc(C(F)(F)F)cc3)nc12 [Compound 198] | 10 to 100 nM
CCCCCn1c(N2CCC[C@H]2C(=O)N[C@@H](Cc2c[nH]cn2)C(=O)O)cc(=O)n2cc(-c3ccc(Cl)cc3)nc12 [Compound 721] | 10 to 100 nM
CCCCCn1c(N2C[C@@H](O)C[C@H]2C(=O)NCCC(=O)O)cc(=O)n2cc(-c3ccc(Cl)cc3)nc12 [Compound 582] | < 10 nM
CCn1c(N2CCC[C@H]2C(=O)NCC(=O)O)cc(=O)n2cc(-c3ccc(Cl)cc3)nc12 [Compound 756] | 100 to 1000 nM
CCCCCn1c(C2=CCN(C(=O)OC(C)(C)C)CC2)cc(=O)n2cc(-c3ccc(Cl)cc3)nc12 [Compound 541] | 100 to 1000 nM
CCCCCn1c(N2CCC[C@H]2C(=O)N2CCO[C@@H](C(=O)O)C2)cc(=O)n2cc(-c3ccc(Cl)cc3)nc12 [Compound 681] | < 10 nM
CCCCCn1c(N2CCCC(F)(F)C2)cc(=O)n2cc(-c3ccc(Cl)cc3)nc12 [Compound 321] | 100 to 1000 nM
CCCCCn1c(-c2ccc(C(=O)NCCc3c[nH]cn3)cc2)cc(=O)n2cc(-c3ccc(Cl)cc3)nc12 [Compound 523] | 10 to 100 nM
CCCCCn1c(N2CCC[C@H]2C(=O)NCCCCC(=O)O)cc(=O)n2cc(-c3ccc(Cl)cc3)nc12 [Compound 345] | < 10 nM
CCn1c(N2CCC[C@H]2C(=O)NC(C)(C)C(=O)O)cc(=O)n2cc(-c3ccc(Cl)cc3)nc12 [Compound 759] | 10 to 100 nM
CCCCCn1c(N2C[C@@H](F)C[C@H]2C(=O)NC(C)(C)CC(=O)O)cc(=O)n2cc(-c3ccc(Cl)cc3)nc12 [Compound 584] | < 10 nM
CCCCCn1c(N2CCC[C@H]2C(=O)NC2CCCCNC2=O)cc(=O)n2cc(-c3ccc(Cl)cc3)nc12 (stereo partly shown) [Compound 694] | 10 to 100 nM

SMILES | IC50
CCCCCn1c(/N=C(\C)OCCCOCOC)cc(=O)n2cc(-c3ccc(Cl)cc3)nc12 [Compound 563] | 100 to 1000 nM
CCCCCn1c(-c2ccc(C(=O)N3CCN(C(C)=O)CC3)cc2)cc(=O)n2cc(-c3ccc(Cl)cc3)nc12 [Compound 474] | 10 to 100 nM
CCCCCn1c(-c2ccc(C(=O)NCCNC(C)=O)cc2)cc(=O)n2cc(-c3ccc(Cl)cc3)nc12 [Compound 470] | 10 to 100 nM
CCCCCn1c(C)c(CCO)c(=O)n2cc(-c3ccc(Cl)cc3)nc12 [Compound 207] | 10 to 100 nM
CCCCCn1c(-c2ccc(C#N)nc2)cc(=O)n2cc(-c3ccc(Cl)cc3)nc12 [Compound 462] | 10 to 100 nM
CCCCCn1c(N2CCC[C@H]2C(=O)N2CCC(C(N)=O)C2)cc(=O)n2cc(-c3ccc(Cl)cc3)nc12 (stereo partly shown) [Compound 701] | 100 to 1000 nM
CCCCCn1c(N2CCC[C@H]2C(=O)N[C@H]2CCCCNC2=O)cc(=O)n2cc(-c3ccc(Cl)cc3)nc12 [Compound 707] | 100 to 1000 nM
CCCCCn1c(N(CCC)C(C)=O)cc(=O)n2cc(-c3ccc(Cl)cc3)nc12 [Compound 560] | 10 to 100 nM
CCCCCn1c(N2CCN(C(=O)OC(C)(C)C)C(C(=O)NCC(=O)O)C2)cc(=O)n2cc(-c3ccc(Cl)cc3)nc12 (stereo not shown) [Compound 627] | 100 to 1000 nM
CCCCCn1c(-c2ccc(C(=O)NCc3ccc(N4CCOCC4)cc3)cc2)cc(=O)n2cc(-c3ccc(Cl)cc3)nc12 [Compound 509] | 10 to 100 nM
NC(=O)c1ccc(-c2cc(=O)n3cc(-c4ccc(Cl)cc4)nc3n2CCCC(F)(F)F)cc1 [Compound 382] | 10 to 100 nM
CCCCCn1c(O[C@H]2CCN(CC(=O)O)C2)cc(=O)n2cc(-c3ccc(Cl)cc3)nc12 [Compound 575] | 10 to 100 nM
CCCCCn1c(N2CCC[C@H]2C(=O)N(C)CC(=O)N(C)C)cc(=O)n2cc(-c3ccc(Cl)cc3)nc12 [Compound 703] | 10 to 100 nM
CC(C)(NC(=O)[C@@H]1CCCN1c1cc(=O)n2cc(-c3ccc(Cl)cc3)nc2n1Cc1ccccc1)C(=O)O [Compound 747] | 10 to 100 nM
CCCCCn1c(N2CCC[C@H]2C(=O)NCCCC(=O)O)cc(=O)n2cc(-c3ccc(Cl)cc3)nc12 [Compound 354] | < 10 nM
CCCCCn1c(N(C)Cc2ccccc2)cc(=O)n2cc(-c3ccc(Cl)cc3)nc12 [Compound 219] | 10 to 100 nM
CCCCCn1c(-c2ccc(NS(C)(=O)=O)cc2)cc(=O)n2cc(-c3ccc(Cl)cc3)nc12 [Compound 401] | 10 to 100 nM
CCCCCn1c(-c2ccc(C(=O)NCC(C)=O)cc2)cc(=O)n2cc(-c3ccc(Cl)cc3)nc12 [Compound 500] | 10 to 100 nM
CCCCCn1c(-c2ccc(C(=O)N3CCS(=O)(=O)CC3)cc2)cc(=O)n2cc(-c3ccc(Cl)cc3)nc12 [Compound 492] | 10 to 100 nM
CCn1c(N2CCC[C@H]2C(=O)N[C@@H](CCc2ccccc2)C(=O)O)cc(=O)n2cc(-c3ccc(Cl)cc3)nc12 [Compound 757] | 10 to 100 nM

SMILES | IC50
CCCCCn1c(N2CCC[C@H]2C(=O)NCCOCCN2C(=O)C=CC2=O)cc(=O)n2cc(-c3ccc(Cl)cc3)nc12 [Compound 668] | 100 to 1000 nM
CCCCCn1c(OC2CCN(C(=O)CN3CCOCC3)CC2)cc(=O)n2cc(-c3ccc(Cl)cc3)nc12 [Compound 539] | 10 to 100 nM
CCCCCn1c(N[C@@H]2CCC[C@H]2C(=O)O)cc(=O)n2cc(-c3ccc(Cl)cc3)nc12 [Compound 613] | 10 to 100 nM
CCCCCn1c(N2CCC(N3CC(C(=O)OC(C)(C)C)C3)C2)cc(=O)n2cc(-c3ccc(Cl)cc3)nc12 (stereo not shown) [Compound 324] | 100 to 1000 nM
CCCCCn1c(N2CCC[C@H]2C(=O)N[C@@H](CCCC)C(=O)O)cc(=O)n2cc(-c3ccc(Cl)cc3)nc12 [Compound 728] | < 10 nM
CCn1c(N2CCC[C@H]2C(=O)N[C@H](C(=O)O)C(C)(C)C)cc(=O)n2cc(-c3ccc(Cl)cc3)nc12 [Compound 758] | 10 to 100 nM
CCCCCn1c(N2CCC3(CN(C(=O)OC(C)(C)C)C3)C2)cc(=O)n2cc(-c3ccc(Cl)cc3)nc12 [Compound 313] | 100 to 1000 nM
CCCCCn1c(/N=C(\C)OCc2ccc(C(=O)OC)cc2)cc(=O)n2cc(-c3ccc(Cl)cc3)nc12 [Compound 567] | > 1000 nM
CCCCCn1c(N2CCC[C@H]2C(=O)NCCCNC)cc(=O)n2cc(-c3ccc(Cl)cc3)nc12 [Compound 661] | > 1000 nM
CCCCCn1c(N2CCC[C@H]2C(=O)N[C@@H]2CNC(=O)C2)cc(=O)n2cc(-c3ccc(Cl)cc3)nc12 [Compound 705] | 100 to 1000 nM
CCCCCn1c(N2CCC(CCc3ccccc3)C2)cc(=O)n2cc(-c3ccc(Cl)cc3)nc12 (stereo not shown) [Compound 322] | > 1000 nM
CCCCCn1c(-c2cnc(C(=O)O)nc2)cc(=O)n2cc(-c3ccc(Cl)cc3)nc12 [Compound 533] | < 10 nM
CCCCCn1c(-c2ccc(NS(=O)(=O)N(C)C)cc2)cc(=O)n2cc(-c3ccc(Cl)cc3)nc12 [Compound 438] | 10 to 100 nM
CN(C)CCNC(=O)c1ccc(-c2cc(=O)n3cc(-c4ccc(Cl)cc4)nc3n2CCCCC#N)cc1 [Compound 378] | 10 to 100 nM
CCCCCn1c(N2CCC3(COC3)C2)cc(=O)n2cc(-c3ccc(Cl)cc3)nc12 [Compound 715] | 10 to 100 nM
CCCCCn1c(N2CCN(C(=O)c3ccc([N+](=O)[O-])cc3)CC2)cc(=O)n2cc(-c3ccc(Cl)cc3)nc12 [Compound 292] | 100 to 1000 nM
CC(C)(NC(=O)[C@@H]1C[C@@H](O)CN1c1cc(=O)n2cc(-c3ccc(Cl)cc3)nc2n1Cc1ccccc1)C(=O)O [Compound 753] | < 10 nM
CCCCCn1c(N2C[C@@H](O)C[C@H]2C(=O)NC(C)(C)CC(=O)O)cc(=O)n2cc(-c3ccc(Cl)cc3)nc12 [Compound 586] | < 10 nM
CCCCCn1c(-c2ccc(C(=O)N3CCCC3)cc2)cc(=O)n2cc(-c3ccc(Cl)cc3)nc12 [Compound 406] | 100 to 1000 nM

Same assay, conditions: Assay Method C, human autotaxin, 18:0 Lyso PC substrate; read-out: Inhibitory Activity

SMILES | IC50
CS(=O)(=O)CCNC(=O)Cc1cn(CCCC(F)(F)F)c2nc(-c3ccc(Cl)cc3)cn2c1=O [Compound 849] | > 1000 nM
O=C(Cc1cn(CCCC(F)(F)F)c2nc(-c3ccc(Cl)cc3)cn2c1=O)N[C@H](CO)Cc1ccccc1 [Compound 866] | > 1000 nM
CCCCCn1c(N2CCCCC2CNC(=O)OC(C)(C)C)cc(=O)n2cc(-c3ccc(Cl)cc3)nc12 (stereo not shown) [Compound 806] | > 1000 nM
N#CC1CN(C(=O)Cc2cn(CCCC(F)(F)F)c3nc(-c4ccc(Cl)cc4)cn3c2=O)CCO1 (stereo not shown) [Compound 862] | 10 to 100 nM
O=C(Cc1cn(CCCC(F)(F)F)c2nc(-c3ccc(Cl)cc3)cn2c1=O)NCC(O)CO (stereo not shown) [Compound 844] | > 1000 nM
CCCCCn1c(N2CCC[C@H](C)C2)cc(=O)n2cc(-c3ccc(Cl)cc3)nc12 [Compound 812] | 100 to 1000 nM
CCCCCn1c(N2CCC[C@H]2C(=O)Nc2nonc2OC)cc(=O)n2cc(-c3ccc(Cl)cc3)nc12 [Compound 794] | 10 to 100 nM
N#CCCNC(=O)Cc1cn(CCCC(F)(F)F)c2nc(-c3ccc(Cl)cc3)cn2c1=O [Compound 830] | 100 to 1000 nM
